Paper PMC11313180 (International Journal of Molecular Sciences, 2024)
Like-named read-outs stand apart in the source and are kept apart here.

Assays:
HDAC2 = details: obtained by fitting Lechner et al. source data to a sigmoidal concentration–effect model; ref [21]; read-out: IC50 HDAC 2, Lechner et al.; cited from earlier work
HDAC8 = target: T1, HDAC8 (Homo sapiens, UniProt Q9BY41); assay: Enzyme HDAC inhibition assay, HDAC8; details: read-out: IC50 HDAC 8; IC50 ± SEM; three experiments in duplicates
T1 sequence (Q9BY41 1-377): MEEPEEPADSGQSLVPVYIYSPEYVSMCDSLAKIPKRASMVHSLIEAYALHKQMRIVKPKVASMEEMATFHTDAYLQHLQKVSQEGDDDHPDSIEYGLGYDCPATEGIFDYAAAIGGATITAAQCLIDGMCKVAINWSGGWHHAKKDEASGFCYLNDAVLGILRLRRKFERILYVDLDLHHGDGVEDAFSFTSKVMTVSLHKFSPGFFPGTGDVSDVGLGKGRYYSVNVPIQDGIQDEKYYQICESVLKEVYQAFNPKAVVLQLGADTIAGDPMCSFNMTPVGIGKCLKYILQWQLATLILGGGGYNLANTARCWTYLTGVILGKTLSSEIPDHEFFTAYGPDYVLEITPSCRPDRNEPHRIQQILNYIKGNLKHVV
Text: (§2) All human recombinant enzymes were purchased from Reaction Biology Corp. (Malvern, PA, USA).

MCF-7 = assay: MTT cell viability assay, MCF-7; type: cell-based, human
Experimental: (§1) MTT assays were performed as previously described. […] After incubation time, medium was replaced by MTT (solution of 5 mg/mL 3-(4,5-dimethylthiazol-2-yl)-2,5-diphenyl-tetrazoliumbromidin in phosphate buffered saline, Serva, Heidelberg, Germany).

MDA-MB-231 = assay: MTT cell viability assay, MDA-MB-231; type: cell-based, human
Experimental: MTT assays were performed as previously described. Cell numbers plated differed depending on each incubation time: MDA-MB-231 5000 c/w, MCF-7 5000 c/w (72 h) and 3000 c/w (120 h), T-47D 10,000 c/w (72 h) and 5000 c/w /120 h). After incubation time, medium was replaced by MTT (solution of 5 mg/mL 3-(4,5-dimethylthiazol-2-yl)-2,5-diphenyl-tetrazoliumbromidin in phosphate buffered saline, Serva, Heidelberg, Germany). After 10 min (MCF-7), 20 min (MDA-MB-231), and 30 min (T47D) and dissolving in DMSO (VWR, Langenfeld, Germany), absorbance was measured at 544 nm and 690 nm in a FLUOstar microplate reader (BMG LabTech, Offenburg, Germany).

HDAC6 [1] = target: T2, HDAC6 (Homo sapiens, UniProt Q9UBN7); assay: Enzyme HDAC inhibition assay, HDAC6; details: read-out: IC50 HDAC 6; IC50 ± SEM; three experiments in duplicates
T2 sequence (Q9UBN7 1-1215): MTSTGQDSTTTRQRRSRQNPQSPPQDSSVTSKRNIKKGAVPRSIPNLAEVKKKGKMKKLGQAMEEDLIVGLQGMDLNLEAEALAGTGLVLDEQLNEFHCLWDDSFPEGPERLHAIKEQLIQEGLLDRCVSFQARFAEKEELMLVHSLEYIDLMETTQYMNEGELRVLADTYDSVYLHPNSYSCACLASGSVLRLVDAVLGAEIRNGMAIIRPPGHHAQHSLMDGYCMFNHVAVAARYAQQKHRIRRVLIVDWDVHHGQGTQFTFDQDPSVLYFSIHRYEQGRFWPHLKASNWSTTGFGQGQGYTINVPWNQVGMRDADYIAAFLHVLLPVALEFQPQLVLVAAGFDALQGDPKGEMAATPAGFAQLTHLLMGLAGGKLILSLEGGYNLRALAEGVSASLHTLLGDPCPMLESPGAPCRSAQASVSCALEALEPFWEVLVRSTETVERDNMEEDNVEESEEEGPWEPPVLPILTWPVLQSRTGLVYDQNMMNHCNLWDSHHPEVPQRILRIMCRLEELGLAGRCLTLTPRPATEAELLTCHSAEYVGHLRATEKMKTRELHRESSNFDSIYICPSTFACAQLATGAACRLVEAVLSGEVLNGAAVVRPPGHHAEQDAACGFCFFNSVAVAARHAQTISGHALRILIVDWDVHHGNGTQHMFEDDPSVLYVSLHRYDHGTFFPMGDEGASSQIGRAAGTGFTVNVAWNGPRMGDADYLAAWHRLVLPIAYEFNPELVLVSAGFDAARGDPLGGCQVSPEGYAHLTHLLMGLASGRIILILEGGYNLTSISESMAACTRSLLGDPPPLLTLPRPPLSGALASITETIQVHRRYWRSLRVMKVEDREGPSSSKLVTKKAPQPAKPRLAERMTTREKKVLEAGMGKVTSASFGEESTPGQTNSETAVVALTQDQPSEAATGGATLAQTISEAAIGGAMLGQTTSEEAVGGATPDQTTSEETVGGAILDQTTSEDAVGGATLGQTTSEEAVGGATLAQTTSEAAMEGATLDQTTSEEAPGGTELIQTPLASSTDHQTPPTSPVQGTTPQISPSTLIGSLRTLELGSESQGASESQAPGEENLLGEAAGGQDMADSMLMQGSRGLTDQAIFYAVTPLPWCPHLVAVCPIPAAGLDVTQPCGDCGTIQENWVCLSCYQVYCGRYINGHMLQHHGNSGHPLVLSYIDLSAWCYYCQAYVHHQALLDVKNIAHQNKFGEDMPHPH
Text: as §2

[2] = tested on: class I/IIb HDAC activity in T47D cells; assay: cells; type: cell-based, human; details: T47D cells, 48 h, substrate Boc-Lys-AC-AMC; IC50 ± SEM, one experiment in triplicates; read-out: IC50 Cellular HDAC Assay
Experimental: The cellular HDAC assay was performed based on an assay published by Heltweg and Jung and Ciossek et al.. Breast cancer cell line T-47D (12,000 c/w) was seeded in 96-well tissue culture plates (Corning, Kaiserslautern, Germany) in a total volume of 90 µL of culture medium. After 24 h, cells were incubated 48 h with increasing concentrations of a-lipoic acid. The reaction was started by adding 10 µL of 3 mM Boc-Lys(Ac)-AMC (Bachem, Bubensdorf, Switzerland) and again incubated for 3 h under cell culture conditions. […]

HDAC6 [3] = details: obtained by fitting Lechner et al. source data to a sigmoidal concentration–effect model; ref [21]; read-out: IC50 HDAC 6, Lechner et al.; cited from earlier work
T47D = assay: MTT cell viability assay, T47D; type: cell-based, human
Experimental: as §1

[4] = 120 h, IC50 ± SEM, read-out: IC50 MCF-7, 120 h MTT assay
[5] = 120 h, IC50 ± SEM, read-out: IC50 MDA-MB-231, 120 h MTT assay
[6] = 120 h, IC50 ± SEM, read-out: IC50 T-47D, 120 h MTT assay

O=C(O)CCCC[C@@H]1CCSS1 [(R)-α-lipoic acid]
IC50 (HDAC2): ~500 µM
IC50 (HDAC8): 151 ± 33.4 µM
inhibition of cell proliferation at 100 µM, MCF-7 (MCF-7; 100 µM, 120 h MTT): did not inhibit cell proliferation
reduction of proliferation at 300 µM, MCF-7 (MCF-7; 300 µM, 120 h MTT): significantly reduced proliferation
decrease of cell viability, MCF-7 (MCF-7; 1 mM, 72 h MTT): approximately 35%
IC50 (MCF-7; 72 h MTT, slightly above, read-out: IC50 MCF-7): ~1000 µM
IC50 (MCF-7; [4]): 439 ± 16.3 µM
increase in potency by prolongation of incubation time, MCF-7 (MCF-7; 120 h versus 72 h MTT): 2.7 fold
IC50 (MCF-7; read-out: IC50 MCF-7, 72 h MTT assay, 72 h, IC50 ± SEM): 1170 ± 28.9 µM
IC50 (MDA-MB-231; 72 h MTT, slightly below, read-out: IC50 MDA-MB-231): ~1000 µM
IC50 (MDA-MB-231; [5]): 225 ± 7.33 µM
increase in potency by prolongation of incubation time, MDA-MB-231 (MDA-MB-231; 120 h versus 72 h MTT): 3.9 fold
IC50 (MDA-MB-231; read-out: IC50 MDA-MB-231, 72 h MTT assay, 72 h, IC50 ± SEM): 873 ± 36 µM
IC50 (HDAC6 [1]): 14.2 ± 2.62 µM
IC50 [2]: 969 ± 120 µM
IC50 (HDAC6 [3]): 210 µM
reduction of proliferation at 100 µM, T47D (T47D; 100 µM, 120 h MTT): 12%
reduction of proliferation at 300 µM, T47D (T47D; 300 µM, 120 h MTT, more pronounced effect in T47D): significantly reduced proliferation
decrease of cell viability, T47D (T47D; 1 mM, 72 h MTT): approximately 35%
IC50 (T47D; 72 h MTT, slightly above, read-out: IC50 T47D): ~1000 µM
IC50 (T47D; [6]): 435 ± 28.6 µM
increase in potency by prolongation of incubation time, T47D (T47D; 120 h versus 72 h MTT): 2.6 fold
IC50 (T47D; read-out: IC50 T-47D, 72 h MTT assay, 72 h, IC50 ± SEM): 1120 ± 67.8 µM

O=C(O)CCCC[C@H]1CCSS1 [(S)-α-lipoic acid]
IC50 (HDAC2): > 500 µM
IC50 (HDAC8): 559 ± 71 µM
IC50 (MCF-7; [4]): 429 ± 26.8 µM
IC50 (MDA-MB-231; [5]): 243 ± 25.1 µM
IC50 (HDAC6 [1]): 21.3 ± 1.23 µM
IC50 [2]: 906 ± 87.7 µM
IC50 (HDAC6 [3]): > 500 µM
IC50 (T47D; [6]): 338 ± 17.4 µM
